The numbers were not newly measured in publication PMC4195943, “A novel small-molecule MRCK inhibitor blocks cancer cell invasion” (Cell Communication and Signaling : CCS, 2014), which cites them from elsewhere.

The target of one series is MRCKα (Homo sapiens, UniProt Q5VT25). More on the design: method as in PMID 21457715. The settings on record: read-out: in vitro IC50, MRCKα; cited from earlier work.
For a further series, the target named is Protein Kinase C. More on the design: method as in PMID 2244923. The settings on record: read-out: in vitro IC50, Protein Kinase C; cited from earlier work.

Chain of MRCKα (Q5VT25 whole entry): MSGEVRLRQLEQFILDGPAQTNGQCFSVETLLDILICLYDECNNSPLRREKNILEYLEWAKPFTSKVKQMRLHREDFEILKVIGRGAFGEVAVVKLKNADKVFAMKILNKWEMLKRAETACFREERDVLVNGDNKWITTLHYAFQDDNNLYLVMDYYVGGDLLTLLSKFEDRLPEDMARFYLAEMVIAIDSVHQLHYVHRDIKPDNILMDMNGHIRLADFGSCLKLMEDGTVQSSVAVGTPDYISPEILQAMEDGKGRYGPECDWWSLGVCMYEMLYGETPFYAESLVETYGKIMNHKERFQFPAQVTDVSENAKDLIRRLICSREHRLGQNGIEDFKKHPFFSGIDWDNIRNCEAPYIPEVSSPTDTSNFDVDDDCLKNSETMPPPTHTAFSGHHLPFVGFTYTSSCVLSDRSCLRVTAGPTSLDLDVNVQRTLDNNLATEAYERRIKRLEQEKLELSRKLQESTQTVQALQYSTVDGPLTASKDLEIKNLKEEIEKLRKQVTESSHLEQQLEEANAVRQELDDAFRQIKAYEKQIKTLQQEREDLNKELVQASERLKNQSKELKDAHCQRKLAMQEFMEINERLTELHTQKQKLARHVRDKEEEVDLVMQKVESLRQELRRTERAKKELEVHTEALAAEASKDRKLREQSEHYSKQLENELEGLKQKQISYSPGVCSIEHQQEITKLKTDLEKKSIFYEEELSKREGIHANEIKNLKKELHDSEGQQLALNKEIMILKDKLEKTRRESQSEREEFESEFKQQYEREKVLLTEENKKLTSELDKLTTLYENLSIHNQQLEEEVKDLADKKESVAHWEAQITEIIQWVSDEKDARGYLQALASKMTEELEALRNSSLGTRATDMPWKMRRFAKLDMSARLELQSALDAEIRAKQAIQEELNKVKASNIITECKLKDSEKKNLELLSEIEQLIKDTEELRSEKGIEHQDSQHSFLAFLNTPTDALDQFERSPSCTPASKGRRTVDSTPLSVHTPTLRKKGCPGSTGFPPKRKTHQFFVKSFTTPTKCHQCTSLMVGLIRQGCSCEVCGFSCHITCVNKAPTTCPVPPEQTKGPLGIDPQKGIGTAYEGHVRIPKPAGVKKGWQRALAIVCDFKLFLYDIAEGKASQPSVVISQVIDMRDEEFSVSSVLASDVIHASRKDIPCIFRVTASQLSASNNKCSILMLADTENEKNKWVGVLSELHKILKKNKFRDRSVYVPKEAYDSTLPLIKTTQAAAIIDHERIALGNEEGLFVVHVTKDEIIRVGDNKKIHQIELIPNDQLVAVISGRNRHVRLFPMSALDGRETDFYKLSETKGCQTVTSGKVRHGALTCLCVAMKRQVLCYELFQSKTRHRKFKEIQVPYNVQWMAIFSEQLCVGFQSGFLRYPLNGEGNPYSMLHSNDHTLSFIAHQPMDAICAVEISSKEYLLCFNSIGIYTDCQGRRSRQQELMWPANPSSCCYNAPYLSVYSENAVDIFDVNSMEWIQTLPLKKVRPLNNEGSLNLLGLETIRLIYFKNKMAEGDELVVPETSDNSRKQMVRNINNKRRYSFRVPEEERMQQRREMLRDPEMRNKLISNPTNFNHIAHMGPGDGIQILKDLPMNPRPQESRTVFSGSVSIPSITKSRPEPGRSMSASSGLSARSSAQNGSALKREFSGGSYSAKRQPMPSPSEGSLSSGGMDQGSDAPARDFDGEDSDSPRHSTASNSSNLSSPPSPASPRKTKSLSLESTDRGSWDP

As to `COc1ccc2c(c[n+](C)c3c4cc5c(cc4ccc23)OCO5)c1OC` [Chelerythrine], the IC50 is 1770 nM on MRCKα and 660 nM on Protein Kinase C.

As usually defined, the IC50 is the concentration that inhibits the measured activity by half.
